Consider four molecules from paper PMC10539350 (Scientific Reports, 2023).

The chromatographic logD is lipophilicity estimated from chromatographic retention. Broadly, the IC50 is the concentration at which inhibition is half-maximal.

≈ marks a conversion by molar mass, not a printed value. Read-outs that look alike come from different tables or passages of the source.

The test system of data set [1] is M. tuberculosis SIR Ciprofloxacin susceptible 168/22. Nature of the data set: tuberculostatic activity, broth microdilution MIC (Alamar blue). Format: cell-based, Mycobacterium tuberculosis. The note with it: Mycobacterium tuberculosis; read-out: Minimal inhibitory concentration.
The test system of data set [2] is M. tuberculosis H37Rv. Type of data set: cell-based, Mycobacterium tuberculosis. The note with it: derivative 6 at 1/2 MIC.
Data set [3] deals with M. tuberculosis H37Rv. Nature of the data set: tuberculostatic activity, broth microdilution MIC (Alamar blue). Format: cell-based, Mycobacterium tuberculosis. To be noted: Mycobacterium tuberculosis, 504 h; M. tuberculosis H37Rv; 21 days 37 °C, Middlebrook 7H9 + OADC; read-out: Minimal inhibitory concentration. (In general: In broth dilution the organism is exposed to a series of concentrations in liquid medium.)

For data set [4] the following is noted: calibration set on the C18 column, literature CHI index, Table S2 ref 19; cited from earlier work.
The conditions of data set [5]: calibration set on the IAM column, CHI index, Table S3 ref 19; cited from earlier work.
Data set [6] can be described thus: physchem. Format: physicochemical. From the text:
For HPLC analyses Prominence-1 LC-2030C 3D HPLC system (Shimadzu, Japan) equipped with a DAD detector and controlled by LabSolution system (version 5.90 Shimadzu, Japan) was used. Two different chromatography columns packed with surface-modified silica were utilized in this study: • Octyldecylsilane (C18 Hypersil GOLD™; 50 mm × 4.6 mm; 5.0 µm; Thermo Scientific, USA) • Immobilized artificial membrane (IAM.PC.DD2; 10 × 4.6 mm × 10.0 µm; Regis Technologies; USA).
Both columns were equipped with guard precolumn containing the same silica-modified bed as the main column. All measurements were carried out using the protocol proposed by Valko[19] and co-workers and adopted in our laboratory. Briefly, methods developed by Valko offered the determination of Chromatographic Hydrophobicity Index (CHI) indices using one gradient elution experiment. Ammonium acetate buffer (50 mM, pH 7.4) and acetonitrile (ACN) were used as the mobile phase at a 1.5 mL/min flow rate. The gradient range varies depending on the column type: • For C18 starting from 2 to 98% ACN in 5.25 min. The maximum concentration of ACN was applied for 1.75 min. • For IAM starting from 0 to 85% ACN in 5.25 min. The maximum concentration of ACN was used for 0.5 min.
During the chromatographic separation, the temperature was stable at 30 °C. […] The injected volume was 10 μL, whereas the concentration of solutes was at level 100 μg/mL. All studied compounds were dissolved in DMSO. Each chromatographic experiments run in triplicate. […] Retention times for studied molecules and reference standards are collected in supplementary materials, Tables S1, S2 and S3, respectively.
Next, the CHIC18 values were converted into lipophilicity indices CHI log D using Eq. […]

The nature of data set [7]: IAM-HPLC affinity to phospholipids (CHI protocol). Format: physicochemical.
The test system of data set [8] is Mycobacterium tuberculosis strains (H37Rv, 22/22, 168/22). Nature of the data set: synergism-antagonism evaluation, summary over all strains. Type of data set: cell-based.
In data set [9] the test system is human colon cancer cells (HCT-116). To be noted: cited from earlier work.
The subject of data set [10] is human immortal keratinocyte cell line (HaCaT). The note with it: cited from earlier work.

With `CC(=O)NC[C@H]1CN(c2ccc(N3CCOCC3)c(F)c2)C(=O)O1` [Linezolid, reference compound], the MIC came out at 0.007 µg/mL (≈ 0.0207 µM) in data set [1] and 0.003 µg/mL in data set [3]. Moreover, in data set [2], the “MIC for reference drug in the presence of derivative 6” value was determined as 1.5 ng/mL.
On to `CCC(=O)c1ccccc1` [Propiophenone], for which the CHIC18 in data set [4] is recorded as 77,5. The CHIIAM in [5] is reported as 25.9.
Take `CCCC(=O)c1ccccc1` [Butyrophenone]: in [4], the CHIC18 is recorded as 87,5. Moreover, the CHIIAM in data set [5] is given as 32.
As for `CC(C)[C@@H]1CC[C@@H](C)C[C@H]1OC(=O)CCCCCN1CCN(c2cc3c(cc2F)c(=O)c(C(=O)O)cn3C2CC2)CC1` [Compound 6, 1‐cyclopropyl‐6‐fluoro‐7‐{4‐[6‐((1R,2S,5R)‐2‐isopropyl‐5‐methylcyclohexyloxy)‐6‐oxohexyl]piperazin‐1‐yl}‐4‐oxo‐1,4‐dihydroquinoline‐3‐carboxylic acid], the CHIC18 in [6] (C18 column, pH 7.4, ACN gradient) is on record as 139.48. Also, the chromatographic logD in data set [6] (pH 7.4) is 5.86. Besides, the “log kIAM” value in data set [7] (0.045*CHIIAM+0.42) was found to be 2.74. Further, in [7] (IAM column, pH 7.4, ACN gradient), the CHIIAM is 51.47. Besides, in data set [8], the “FICI values, derivative 6 with Linezolid” value was determined as 1.0 and the “interaction type from FICI” value is listed as “indifference (key: synergism (FICI ≤ 0.5); indifference (> 0.5 FICI ≤ 4); antagonism (FICI > 4))”. Also, in data set [9] (HCT-116, MTT assay ref 10), the IC50 is 29.5 ± 2.1 µM. In addition, the selectivity index in data set [9] (HCT-116 versus HaCaT ref 10) is recorded as 3.4. Besides, the MIC in data set [1] is 1 µg/mL (≈ 1.71 µM). In addition, the cytotoxic effect entry in data set [10] was “no cytotoxic effect”. Further, the MIC in [3] was found to be 1 µg/mL.
